From PMC12064818, “A general assay platform to study protein pharmacology using ligand-dependent structural dynamics” (Nature Communications, 2025) come the findings set out here.

This assay addresses T1, FLuc-C-HiBiT (Photinus pyralis, UniProt P08659).
T1 construct: firefly luciferase with C-terminal HiBiT tag, E. coli expressed
Description: biochemical. Particulars: enzyme activity, 10 uM ATP; read-out: IC50 or SDR50 (mM) / FLuc E. The procedure: The enzyme activity of FLuc-N-HiBiT, FLuc-C-HiBiT, and FLuc-C-NLuc was measured similar to P. pyralis firefly luciferase (FLuc) as previously described. […] Compounds and controls were added to each plate as described in Supplementary Data 8 with a Hornet pintool system (Wako Automation). Compounds were incubated with respective enzymes for 30–60 min at room temperature protected from light and covered by solid metal lid to prevent evaporation. […] Luciferin was incubated with FLuc enzyme for 5 min before FLuc activity was then measured on a ViewLux CCD imager (PerkinElmer), with exposure times up to ten seconds with medium to high gain settings. Data were normalized to average no enzyme control as 100% enzyme inhibition and average DMSO neutral control. See Supplementary Table 4 for additional details. As a proof-of-concept target, we appended the sensor protein or corresponding α-peptide to either the N- or C-terminus of the target protein firefly luciferase (FLuc), an ATP cofactor-dependent monooxygenase (Supplementary Fig. 1a) having a broad, well-characterized and accessible ligand pharmacology. For initial characterization of the SDR concept, either NLuc or the 11 amino acid HiBiT tag (α-peptide) and complementary 18 kDa LgBiT subunit (ω-fragment), which self-assemble to reconstitute functional NLuc enzyme[24] were tested. In contrast to the ATP-dependent bioluminescent FLuc enzyme, NLuc generates a bright bioluminescence in an ATP-independent manner from the direct oxidation of furimazine (Supplementary Fig. 1b). […] Next, FLuc-C-NLuc, FLuc-N-HiBiT or FLuc-C-HiBiT were assayed with the same inhibitor in an SDR assay format by monitoring bioluminescence from NLuc or its reconstitution by α-complementation with LgBiT. Measurements of NLuc activity were made either in the absence or presence of the FLuc ATP cofactor, as NLuc bioluminescence is ATP-independent.

T1 sequence (P08659 whole entry, looked up): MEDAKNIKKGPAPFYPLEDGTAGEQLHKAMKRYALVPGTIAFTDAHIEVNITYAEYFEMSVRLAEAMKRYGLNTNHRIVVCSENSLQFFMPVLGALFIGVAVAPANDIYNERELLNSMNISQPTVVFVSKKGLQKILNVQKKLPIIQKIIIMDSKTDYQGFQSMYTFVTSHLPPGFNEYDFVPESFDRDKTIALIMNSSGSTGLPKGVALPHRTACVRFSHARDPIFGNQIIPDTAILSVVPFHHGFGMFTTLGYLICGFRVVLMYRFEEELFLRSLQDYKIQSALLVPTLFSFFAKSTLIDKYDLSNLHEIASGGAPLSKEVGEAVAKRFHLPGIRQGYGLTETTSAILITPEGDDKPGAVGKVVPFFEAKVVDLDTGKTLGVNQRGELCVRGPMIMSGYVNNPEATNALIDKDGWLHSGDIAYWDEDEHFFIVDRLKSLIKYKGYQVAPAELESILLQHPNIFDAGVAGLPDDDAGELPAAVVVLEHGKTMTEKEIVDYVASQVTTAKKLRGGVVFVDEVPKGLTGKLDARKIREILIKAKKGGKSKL

For `COc1cccc(NC(=O)CCc2nc(-c3ccc(C(C)(C)C)cc3)no2)c1` [NCGC00115609-01], the IC50 was determined as 0.007 mM. For the compound `Cc1ccc(-c2nnc(C3CN(C(=O)c4sc(C)nc4C)CC34CCOCC4)o2)cc1` (centres unmarked) [NCGC00471668-01], the IC50 was over 0.03 mM. As to `COc1ccc(-c2nc3ccc(N[S+](C)(=O)[O-])cc3o2)cc1` [NCGC00119094-01], the IC50 worked out at 0.00556 mM. Take `Cc1ncc(C(=O)NCc2ccc3[nH]c(-c4ccccc4F)c(C)c3c2)c(C)n1` [NCGC00435925-01]: the IC50 turned out to be 0.00785 mM. Take `COc1cccc(-c2cc(C(=O)NCc3nc(-c4ccccc4)n[nH]3)[nH]n2)c1` [NCGC00437481-01]: the IC50 came out at 0.0111 mM.

As for `Oc1cc(-c2nc3ccccc3s2)cc2c1OCCN(Cc1cccn1-c1ccc(Cl)cn1)C2` [NCGC00240283-01], the IC50 is over 0.03 mM. In the case of `Cc1ccc(/C=C/c2nc3ccccc3n2S(=O)(=O)c2cccc(Cl)c2)cc1` [NCGC00140605-01] it was 0.000124 mM; in that of `OCc1cccc(-c2cc3c(cn2)CN(Cc2ccccc2)CCN3)c1` [NCGC00411045-01], 0.018 mM. On to `CC(C)c1nc2c(c(-c3ccc(O)cc3)n1)CCN(Cc1ccccn1)CC2` [NCGC00480326-01], for which the IC50 was over 0.03 mM. Take `COc1cccc(CC(=O)Nc2ccc(-c3nc4ccccc4s3)cc2)c1` [NCGC00137800-01]: the IC50 was 0.00881 mM. For the compound `CCC(=O)Nc1cc(-c2nc3ccccc3s2)c(Cl)cc1Cl` [NCGC00103217-01], the IC50 is over 0.03 mM. `CCCN1CCNc2cc(Nc3ccccc3)ncc2C1` [NCGC00411254-01]: the IC50 worked out at 0.0254 mM. On to `COc1ccc(-c2nc(C)c(CCNC(=O)c3c(F)cccc3F)s2)cc1` [NCGC00135823-01], for which the IC50 is over 0.03 mM. Under `C[C@H](C(=O)NCCN1CCOCC1)C1CC[C@@]2(C)Cc3sc(-c4ccccc4)nc3[C@@H](C)[C@@H]2[C@H]1O` (some centres unmarked) [NCGC00421022-01] stands 0.000989 mM; under `Cc1ccc(NC(=O)C2CCN(c3nc(-c4ccc(C(C)C)cc4)no3)CC2)c(Cl)c1` [NCGC00134062-01], 0.014 mM; under `c1ccc(CNc2cc(-c3cc(N4CCCCC4)ncn3)c3cc[nH]c3n2)nc1` [NCGC00436665-01], 0.00989 mM. Take `COc1cc(Cl)ccc1-c1ccc(COc2ccc3c(cnn3CCC(=O)O)c2)cc1` [NCGC00418159-01]: the IC50 turned out to be 0.0202 mM. In the case of `CC(=O)NC1(C)CN(Cc2ccc(-c3ccc(Oc4ccccc4)cc3)s2)C1` [NCGC00410351-01] it was 0.0255 mM; in that of `O=C1c2cnc(-c3cc4ccccc4o3)nc2OCCN1Cc1ccccc1` [NCGC00413600-01], 0.00161 mM; in that of `O=C(CSc1nnc2[nH]c(=O)cc(-c3ccccc3)n12)Nc1ccc(OC(F)(F)F)cc1` [NCGC00136515-01], 0.007 mM.

With `Cc1cccn2c(=O)c(C(=O)NCCc3ccccc3)cnc12` [NCGC00137532-01], the IC50 came out at 0.007 mM. With `CC1CCCN(C(=O)c2cc3ccc4cccnc4c3[nH]2)C1` (centres unmarked) [NCGC00126906-01], the IC50 amounted to 0.000556 mM. `CN1CCN(c2ccc(-c3cc4c(ccn4C)c(C(=O)NCCC(N)=O)n3)cc2)CC1` [NCGC00411733-01]: the IC50 worked out at 0.0143 mM. For the compound `CCOc1cc2sc(N3CCC(C(=O)Nc4ccc(C(C)C)cc4)CC3)nc2cc1Br` [NCGC00113423-01], the IC50 was found to be 0.007 mM. Under `O=C(O)COCC(=O)N[C@H]1CCN2C(=O)c3cc(/C=C/c4ccccc4)ccc3NC(=O)[C@H]12` [NCGC00395144-01] stands 0.0124 mM; under `Cc1ccc(NC(=O)/C=C/c2ccccc2Cl)cc1Cl` [NCGC00098283-01], 0.00351 mM; under `COc1ccc(-c2cn3nc(SCC(=O)Nc4ccccc4F)ccc3n2)cc1` [NCGC00134464-01], 0.00157 mM.

`Cc1ccc(-n2ncc3c(N4CCCC(C)C4)ncnc32)c(C)c1` (centres unmarked) [NCGC00081401-03]: the IC50 was 0.0111 mM. As to `COc1ccc(C(=O)Nc2ccc(-c3nc4ccccc4s3)cc2C)cc1Cl` [NCGC00102365-01], the IC50 was over 0.03 mM.

Consider `CC1CCCN(c2ncnc3c2cnn3-c2cccc(Cl)c2)C1` (centres unmarked) [NCGC00523592-01], for which the IC50 was found to be 0.000785 mM. For `CCCC(=O)N1CCN(c2nc3ccc(F)cc3s2)CC1` [NCGC00137065-01], the IC50 came to 0.0111 mM. With `CC(Oc1ccccc1F)C(=O)Nc1ccc(-c2nc3ccccc3s2)cc1` (centres unmarked) [NCGC00119149-01], the IC50 was 0.00881 mM. For the compound `Cc1ccc2sc(-c3ccc(N)cc3)nc2c1` [NCGC00117377-01], the IC50 was found to be 0.000279 mM. Under `Cc1cc2c(c(-c3nc4ccccc4s3)c1)OC(CNC(=O)CCc1cccnc1)C2` (centres unmarked) [NCGC00239520-01] stands 0.0176 mM. As to `CCOc1ccc(Nc2nc(-c3ccccc3)no2)cc1` [NCGC00422297-01], the IC50 was found to be 0.00495 mM. With `Cc1ccc(-c2noc(-c3ccccc3Br)n2)cc1` [NCGC00079622-01], the IC50 is 0.00157 mM. In the case of `Cc1cc(-c2cc3c(cn2)CN(Cc2nccn2C)CCN3)ccn1` [NCGC00411046-01] it was 0.0161 mM; in that of `COc1ccc2cc(C3CN(C(=O)c4cccc(CO)c4)CCO3)ccc2c1` (centres unmarked) [NCGC00430133-01], 0.00248 mM. In the case of `Clc1ccccc1Cc1cn2cc(-c3ccccc3)nc2s1` [NCGC00102100-01], the IC50 amounted to 0.000442 mM.

For the compound `Cc1ccc(CNC(=O)c2ccc3c(c2)CN(Cc2cnn(C)c2C)CCO3)cc1` [NCGC00426362-01], the IC50 is over 0.03 mM. Consider `CCn1cc(-c2ccc(Cl)cc2)cc1C(=O)O` [NCGC00432653-01], for which the IC50 is over 0.03 mM.

`Nc1nc(=O)c2[nH]c(=O)n(C3CC(O)C(CO)O3)c2[nH]1` (centres unmarked) [NCGC00390462-01]: the IC50 is over 0.03 mM. Under `CCn1c(C2CCCN(C(=O)Nc3ccc4c(c3)OCCO4)C2)nn(C)c1=O` (centres unmarked) [NCGC00439046-01] stands 0.0111 mM; under `O=c1[nH]nc2n1CCCCC2` [NCGC00019120-02], over 0.03 mM; under `CC(C)CN1CCNc2cc(-c3ccccc3)ncc2C1` [NCGC00411061-01], 0.0226 mM. Regarding `COc1ccc(C(=O)N[C@@H]2CN(C(=O)Nc3ccc(OC(F)(F)F)cc3)CCC[C@H]2O)cc1` [NCGC00401608-01], the IC50 worked out at 0.0111 mM.

Consider `COc1ccc(-c2cc(N3CCCC(NC(=O)c4ccsc4)C3)[nH]n2)cc1` (centres unmarked) [NCGC00437662-01], for which the IC50 came to 0.00624 mM. In the case of `Cc1c(CCNC(=O)c2ccc(Br)o2)sc2nc(-c3ccc(Cl)cc3)nn12` [NCGC00137117-01] it was 0.0124 mM.

As for `O=C(Nc1nc2c(F)cccc2s1)c1ccc2c(c1)OCCO2` [NCGC00141660-01], the IC50 came to 0.000495 mM. In the case of `Cc1ccc(-n2ncc3c(N4CCCCC4)nc(NCCCO)nc32)cc1` [NCGC00652354-01] it was over 0.03 mM. Regarding `Cc1c(Cl)cccc1-n1nnc(-c2nc(-c3ccc4c(c3)OCO4)no2)c1C` [NCGC00128638-01], the IC50 was 0.0111 mM. For the compound `Fc1ccc(-c2cn3cc(Cc4ccccc4Cl)sc3n2)cc1` [NCGC00102130-01], the IC50 stood at 0.000989 mM.

Regarding `COc1ccc(NC(=O)Nc2ccc(C)n(CC(=O)O)c2=O)cc1` [NCGC00432735-01], the IC50 was found to be 0.00989 mM. On to `COc1cc(C)ccc1OCc1cc(C(=O)NCc2n[nH]c3c2CCC3)no1` [NCGC00433000-01], for which the IC50 amounted to 0.0124 mM.

With `O=C(Nc1n[nH]c2cc(-c3ccccc3)ccc12)C1CC1` [NCGC00242141-02], the IC50 was found to be 0.0124 mM. On to `Fc1ccc(Nc2nc(-c3ccccc3)no2)cc1` [NCGC00422295-01], for which the IC50 was determined as 0.00624 mM. `CNC(=O)CCn1ncc2cc(OCc3ccccc3-c3cccc(NC(C)=O)c3)ccc21` [NCGC00418019-01]: the IC50 worked out at 0.00313 mM. As to `COc1ccc(NC(=O)Nc2ccc(C)n(CC(=O)N3CCCCCC3)c2=O)cc1` [NCGC00430834-01], the IC50 came out at 0.00989 mM. In the case of `COCCN1CCC2(C1)CN(C)c1ccc(C(=O)Nc3ccn(C)n3)cc12` (centres unmarked) [NCGC00419376-01], the IC50 was 0.0101 mM. As for `COc1cccc(-c2noc(COc3ccccc3Cl)n2)c1` [NCGC00115123-01], the IC50 turned out to be 0.0111 mM. For the compound `Fc1ccccc1-c1nc(-c2ccccc2)no1` [NCGC00058026-03], the IC50 amounted to 0.00157 mM. Under `Oc1cc(-c2nc3ccccc3s2)cc2c1OCCN(Cc1c[nH]nc1-c1ccc(Cl)cc1)C2` [NCGC00240676-01] stands over 0.03 mM; under `O=C(Nc1ccccc1)N1CC(Oc2ccc(-c3nc(-c4ccccc4)no3)cc2)C1` [NCGC00441117-01], 0.0111 mM; under `CN(C)c1cccc(C(=O)Nc2ccc(-c3nc4ccccc4s3)cc2)c1` [NCGC00137782-01], 0.00881 mM.

Turning to `COc1ccc(-c2nnc(SC(C)C(=O)O)o2)cc1` (centres unmarked) [NCGC00103120-01], the IC50 came to 0.014 mM. Under `COc1ccc(-c2cc(=O)c3cc(OCC(=O)OC(C)C)ccc3o2)cc1` [NCGC00100608-01] stands 0.00394 mM; under `c1ccc(CCCNc2nccc(-c3ccccn3)n2)nc1` [NCGC00443451-01], over 0.03 mM. Turning to `OC1(CN2CCCCC2)CCN(c2nc3ccccc3s2)C1` (centres unmarked) [NCGC00437487-01], the IC50 amounted to 0.0157 mM.
